Where a SMILES comes first, the peptide text is derived from it. [ ]: non-standard residue; d: D form. The star is where a group is joined. Acryloyl(3-(pyridin-3-yl)) = O=C(C=Cc1cccnc1)*; Propanoyl(3-(4-Cl-Ph)) = O=C(CCc1ccc(Cl)cc1)*; 2Naphthoyl(6-OH) = O=C(c1ccc2cc(O)ccc2c1)*; Hydrocinnamoyl(4-Me) = Cc1ccc(CCC(=O)*)cc1; Quinoline3carbonyl = O=C(c1cnc2ccccc2c1)*; X6 = O=C(/C=C\c1ccc([N+](=O)[O-])cc1)*; X36 = O=C(C=Cc1ccc(OS(=O)(=O)O)cc1)*; X15 = O=C(/C=C\c1ccc(C(F)(F)F)cc1)*; X22 = O=C(CCc1cccc(OS(=O)(=O)O)c1)*; Hydrocinnamoyl = O=C(CCc1ccccc1)*; X17 = COc1ccc(/C=C\C(=O)*)c(OC)c1; NMeF = CN[C@@H](Cc1ccccc1)C(=O)O; X30 = O=C(CCc1ccc(C(F)(F)F)cc1)*; X10 = O=C(/C=C\c1ccc(Cl)cc1Cl)*; X37 = O=C(C=Cc1c[nH]c2ccccc12)*; X7 = CN(C)c1ccc(/C=C\C(=O)*)cc1; X8 = COc1ccc2[nH]c(C(=O)*)cc2c1; X12 = O=C(c1cnc2cccc(O)c2c1)*; X21 = O=C(/C=C\c1ccc(Br)cc1)*; X11 = O=C(/C=C\c1ccc(O)cc1)*; X18 = O=C(c1cc2ccccc2[nH]1)*; X19 = O=C(/C=C\c1ccccc1)*; X27 = O=C(Cc1ccc(O)cc1)*; X5 = O=C(CCc1cccc(O)c1)*; Boc = CC(C)(C)OC(=O)*

In general, IC50 refers to the point on the concentration scale where inhibition reaches its midpoint. Read a low IC50 as greater potency.

The target in this assay is Gastrin/cholecystokinin type B receptor (Cavia porcellus). Briefly: Inhibition of specific binding of [125I]BH-CCK-8 in guinea pig cortex.
In turn, `CC(C)(C)OC(=O)N[C@@H](Cc1c[nH]c2ccccc12)C(=O)N[C@@H](CCCCNC(=O)CCc1cccc(OS(=O)(=O)O)c1)C(=O)N[C@@H](CC(=O)O)C(=O)N[C@@H](Cc1ccccc1)C(N)=O` [3-{2-[2-tert-Butoxycarbonylamino-3-(1H-indol-3-yl)-propionylamino]-6-[3-(3-sulfooxy-phenyl)-propionylamino]-hexanoylamino}-N-(1-carbamoyl-2-phenyl-ethyl)-succinamic acid; NH40H.hydrate] (Boc-WK(X22)DF-NH2) came in with an IC50 of 10000 nM.
As for `CC(C)(C)OC(=O)N[C@@H](Cc1c[nH]c2ccccc12)C(=O)N[C@@H](CCCCNC(=O)c1cnc2cccc(O)c2c1)C(=O)N[C@@H](CC(=O)O)C(=O)N[C@@H](Cc1ccccc1)C(N)=O` (Boc-WK(X12)DF-NH2), the figure is 670 nM; as for `CC(C)(C)OC(=O)N[C@@H](Cc1c[nH]c2ccccc12)C(=O)N[C@@H](CCCCNC(=O)/C=C\c1ccc(C(F)(F)F)cc1)C(=O)N[C@@H](CC(=O)O)C(=O)N[C@@H](Cc1ccccc1)C(N)=O` [3-{2-[2-tert-Butoxycarbonylamino-3-(1H-indol-3-yl)-propionylamino]-6-[3-(4-trifluoromethyl-phenyl)-acryloylamino]-hexanoylamino}-N-(1-carbamoyl-2-phenyl-ethyl)-succinamic acid; hydrate] (Boc-WK(X15)DF-NH2), 5300 nM.
In the case of `CC(C)(C)OC(=O)N[C@@H](Cc1c[nH]c2ccccc12)C(=O)N[C@@H](CCCCNC(=O)/C=C\c1ccc(O)cc1)C(=O)N[C@@H](CC(=O)O)C(=O)N[C@@H](Cc1ccccc1)C(N)=O` [3-{2-[2-tert-Butoxycarbonylamino-3-(1H-indol-3-yl)-propionylamino]-6-[3-(4-hydroxy-phenyl)-acryloylamino]-hexanoylamino}-N-(1-carbamoyl-2-phenyl-ethyl)-succinamic acid] (Boc-WK(X11)DF-NH2) it was 730 nM; in that of `CC(C)(C)OC(=O)N[C@@H](Cc1c[nH]c2ccccc12)C(=O)N[C@@H](CCCCNC(=O)/C=C\c1ccc(Cl)cc1Cl)C(=O)N[C@@H](CC(=O)O)C(=O)N[C@@H](Cc1ccccc1)C(N)=O` [3-{2-[2-tert-Butoxycarbonylamino-3-(1H-indol-3-yl)-propionylamino]-6-[3-(2,4-dichloro-phenyl)-acryloylamino]-hexanoylamino}-N-(1-carbamoyl-2-phenyl-ethyl)-succinamic acid; hydrate] (Boc-WK(X10)DF-NH2), 5000 nM.
In the case of `CC(C)(C)OC(=O)N[C@@H](Cc1c[nH]c2ccccc12)C(=O)N[C@@H](CCCCNC(=O)/C=C\c1ccccc1)C(=O)N[C@@H](CC(=O)O)C(=O)N[C@@H](Cc1ccccc1)C(N)=O` [3-[2-[2-tert-Butoxycarbonylamino-3-(1H-indol-3-yl)-propionylamino]-6-(3-phenyl-acryloylamino)-hexanoylamino]-N-(1-carbamoyl-2-phenyl-ethyl)-succinamic acid.AcOH] (Boc-WK(X19)DF-NH2) it was 1800 nM; in that of `CC(C)(C)OC(=O)N[C@@H](Cc1c[nH]c2ccccc12)C(=O)N[C@@H](CCCCNC(=O)/C=C\c1ccc([N+](=O)[O-])cc1)C(=O)N[C@@H](CC(=O)O)C(=O)N[C@@H](Cc1ccccc1)C(N)=O` [3-{2-[2-tert-Butoxycarbonylamino-3-(1H-indol-3-yl)-propionylamino]-6-[3-(4-nitro-phenyl)-acryloylamino]-hexanoylamino}-N-(1-carbamoyl-2-phenyl-ethyl)-succinamic acid; hydrate] (Boc-WK(X6)DF-NH2), 4400 nM.
The compound `COc1ccc(/C=C\C(=O)NCCCC[C@H](NC(=O)[C@H](Cc2c[nH]c3ccccc23)NC(=O)OC(C)(C)C)C(=O)N[C@@H](CC(=O)O)C(=O)N[C@@H](Cc2ccccc2)C(N)=O)c(OC)c1` [3-{2-[2-tert-Butoxycarbonylamino-3-(1H-indol-3-yl)-propionylamino]-6-[3-(2,4-dimethoxy-phenyl)-acryloylamino]-hexanoylamino}-N-(1-carbamoyl-2-phenyl-ethyl)-succinamic acid; hydrate] (Boc-WK(X17)DF-NH2) yielded an IC50 of 3000 nM.
In the case of `CN(C(=O)[C@H](CC(=O)O)NC(=O)[C@H](CCCCNC(=O)C=Cc1cccnc1)NC(=O)[C@H](Cc1c[nH]c2ccccc12)NC(=O)OC(C)(C)C)[C@@H](Cc1ccccc1)C(N)=O` (Boc-WK(Acryloyl(3-(pyridin-3-yl)))D[NMeF]-NH2) it was 120 nM; in that of `CN(C(=O)[C@H](CC(=O)O)NC(=O)[C@H](CCCCNC(=O)C=Cc1ccc(OS(=O)(=O)O)cc1)NC(=O)[C@H](Cc1c[nH]c2ccccc12)NC(=O)OC(C)(C)C)[C@@H](Cc1ccccc1)C(N)=O` (Boc-WK(X36)D[NMeF]-NH2), 1000 nM.
As for `CC(C)(C)OC(=O)N[C@@H](Cc1c[nH]c2ccccc12)C(=O)N[C@@H](CCCCNC(=O)Cc1ccc(O)cc1)C(=O)N[C@@H](CC(=O)O)C(=O)N[C@@H](Cc1ccccc1)C(N)=O` [3-{2-[2-tert-Butoxycarbonylamino-3-(1H-indol-3-yl)-propionylamino]-6-[2-(4-hydroxy-phenyl)-acetylamino]-hexanoylamino}-N-(1-carbamoyl-2-phenyl-ethyl)-succinamic acid; hydrate] (Boc-WK(X27)DF-NH2), the figure is 480 nM; as for `CC(C)(C)OC(=O)N[C@@H](Cc1c[nH]c2ccccc12)C(=O)N[C@@H](CCCCNC(=O)CCc1ccc(C(F)(F)F)cc1)C(=O)N[C@@H](CC(=O)O)C(=O)N[C@@H](Cc1ccccc1)C(N)=O` [3-{2-[2-tert-Butoxycarbonylamino-3-(1H-indol-3-yl)-propionylamino]-6-[3-(4-trifluoromethyl-phenyl)-propionylamino]-hexanoylamino}-N-(1-carbamoyl-2-phenyl-ethyl)-succinamic acid; hydrate] (Boc-WK(X30)DF-NH2), 19000 nM; as for `Cc1ccc(CCC(=O)NCCCC[C@H](NC(=O)[C@H](Cc2c[nH]c3ccccc23)NC(=O)OC(C)(C)C)C(=O)N[C@@H](CC(=O)O)C(=O)N[C@@H](Cc2ccccc2)C(N)=O)cc1` [3-[2-[2-tert-Butoxycarbonylamino-3-(1H-indol-3-yl)-propionylamino]-6-(3-p-tolyl-propionylamino)-hexanoylamino]-N-(1-carbamoyl-2-phenyl-ethyl)-succinamic acid] (Boc-WK(Hydrocinnamoyl(4-Me))DF-NH2), 10000 nM.
As for `CC(C)(C)OC(=O)N[C@@H](Cc1c[nH]c2ccccc12)C(=O)N[C@@H](CCCCNC(=O)/C=C\c1ccc(Br)cc1)C(=O)N[C@@H](CC(=O)O)C(=O)N[C@@H](Cc1ccccc1)C(N)=O` [3-{6-[3-(4-Bromo-phenyl)-acryloylamino]-2-[2-tert-butoxycarbonylamino-3-(1H-indol-3-yl)-propionylamino]-hexanoylamino}-N-(1-carbamoyl-2-phenyl-ethyl)-succinamic acid; hydrate.NH4OH] (Boc-WK(X21)DF-NH2), the figure is 5100 nM.
For `CN(C)c1ccc(/C=C\C(=O)NCCCC[C@H](NC(=O)[C@H](Cc2c[nH]c3ccccc23)NC(=O)OC(C)(C)C)C(=O)N[C@@H](CC(=O)O)C(=O)N[C@@H](Cc2ccccc2)C(N)=O)cc1` [3-{2-[2-tert-Butoxycarbonylamino-3-(1H-indol-3-yl)-propionylamino]-6-[3-(4-dimethylamino-phenyl)-acryloylamino]-hexanoylamino}-N-(1-carbamoyl-2-phenyl-ethyl)-succinamic acid; hydrate] (Boc-WK(X7)DF-NH2), the IC50 was 2100 nM.
In the case of `CC(C)(C)OC(=O)N[C@@H](Cc1c[nH]c2ccccc12)C(=O)N[C@@H](CCCCNC(=O)C=Cc1c[nH]c2ccccc12)C(=O)N[C@@H](CC(=O)O)C(=O)N[C@@H](Cc1ccccc1)C(N)=O` (Boc-WK(X37)DF-NH2) it was 4700 nM.
As for `CC(C)(C)OC(=O)N[C@@H](Cc1c[nH]c2ccccc12)C(=O)N[C@@H](CCCCNC(=O)c1cnc2ccccc2c1)C(=O)N[C@@H](CC(=O)O)C(=O)N[C@@H](Cc1ccccc1)C(N)=O` (Boc-WK(Quinoline3carbonyl)DF-NH2), the figure is 200 nM; as for `CC(C)(C)OC(=O)N[C@@H](Cc1c[nH]c2ccccc12)C(=O)N[C@@H](CCCCNC(=O)CCc1ccc(Cl)cc1)C(=O)N[C@@H](CC(=O)O)C(=O)N[C@@H](Cc1ccccc1)C(N)=O` [3-{2-[2-tert-Butoxycarbonylamino-3-(1H-indol-3-yl)-propionylamino]-6-[3-(4-chloro-phenyl)-propionylamino]-hexanoylamino}-N-(1-carbamoyl-2-phenyl-ethyl)-succinamic acid; hydrate] (Boc-WK(Propanoyl(3-(4-Cl-Ph)))DF-NH2), 7000 nM.
In the case of `CC(C)(C)OC(=O)N[C@@H](Cc1c[nH]c2ccccc12)C(=O)N[C@@H](CCCCNC(=O)c1cc2ccccc2[nH]1)C(=O)N[C@@H](CC(=O)O)C(=O)N[C@@H](Cc1ccccc1)C(N)=O` (Boc-WK(X18)DF-NH2) it was 2100 nM; in that of `COc1ccc2[nH]c(C(=O)NCCCC[C@H](NC(=O)[C@H](Cc3c[nH]c4ccccc34)NC(=O)OC(C)(C)C)C(=O)N[C@@H](CC(=O)O)C(=O)N[C@@H](Cc3ccccc3)C(N)=O)cc2c1` (Boc-WK(X8)DF-NH2), 3000 nM.
Compound `CC(C)(C)OC(=O)N[C@@H](Cc1c[nH]c2ccccc12)C(=O)N[C@@H](CCCCNC(=O)CCc1cccc(O)c1)C(=O)N[C@@H](CC(=O)O)C(=O)N[C@@H](Cc1ccccc1)C(N)=O` [3-{2-[2-tert-Butoxycarbonylamino-3-(1H-indol-3-yl)-propionylamino]-6-[3-(3-hydroxy-phenyl)-propionylamino]-hexanoylamino}-N-(1-carbamoyl-2-phenyl-ethyl)-succinamic acid; hydarte] (Boc-WK(X5)DF-NH2) showed an IC50 of 3000 nM.
In the case of `CN(C(=O)[C@H](CC(=O)O)NC(=O)[C@H](CCCCNC(=O)c1ccc2cc(O)ccc2c1)NC(=O)[C@H](Cc1c[nH]c2ccccc12)NC(=O)OC(C)(C)C)[C@@H](Cc1ccccc1)C(N)=O` (Boc-WK(2Naphthoyl(6-OH))D[NMeF]-NH2) it was 730 nM; in that of `CC(C)(C)OC(=O)N[C@@H](Cc1c[nH]c2ccccc12)C(=O)N[C@@H](CCCCNC(=O)CCc1ccccc1)C(=O)N[C@@H](CC(=O)O)C(=O)N[C@@H](Cc1ccccc1)C(N)=O` [3-[2-[2-tert-Butoxycarbonylamino-3-(1H-indol-3-yl)-propionylamino]-6-(3-phenyl-propionylamino)-hexanoylamino]-N-(1-carbamoyl-2-phenyl-ethyl)-succinamic acid.2AcOH] (Boc-WK(Hydrocinnamoyl)DF-NH2), 5900 nM.

For the origin of these results see BindingDB's records for doi:10.1021/jm00089a010 (Abbott Laboratories, 1992).
